From the supplement of paper PMC10307832

How the values were obtained:
Assay in all cases: relative viability (nuclei count vs DMSO), 5 days (fraction); higher = more cells survive
Metformin + Foretinib = compound: CN(C)C(=N)NC(=N)N [Metformin] + COc1cc2c(Oc3ccc(NC(=O)C4(C(=O)Nc5ccc(F)cc5)CC4)cc3F)ccnc2cc1OCCCN1CCOCC1 [Foretinib] (partner 0.25 µM)
Procedure, shortened: (§1)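 Relative viability equals treated-well nuclei counts divided by vehicle-well nuclei counts. Counts came from 4× images of lung cancer cell lines grown in 1536-well plates for 5 days after pin-tool dosing on the day after seeding. Dosing used one drug alone or a fixed anchor-drug dose plus five library-drug doses (not always all listed) in √10 steps, and values are medians of duplicate plates.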

Metformin + Vorinostat = compound: CN(C)C(=N)NC(=N)N [Metformin] + O=C(CCCCCCC(=O)Nc1ccccc1)NO [Vorinostat] (partner 1 µM)
Procedure, shortened: as §1

Apatinib + Trametinib = compound: N#CC1(c2ccc(NC(=O)c3cccnc3NCc3ccncc3)cc2)CCCC1 [Apatinib] + CC(=O)Nc1cccc(-n2c(=O)n(C3CC3)c(=O)c3c(Nc4ccc(I)cc4F)n(C)c(=O)c(C)c32)c1 [Trametinib] (partner 0.02 µM)
Procedure, shortened: as §1

Apatinib + Navitoclax = compound: N#CC1(c2ccc(NC(=O)c3cccnc3NCc3ccncc3)cc2)CCCC1 [Apatinib] + CC1(C)CCC(c2ccc(Cl)cc2)=C(CN2CCN(c3ccc(C(=O)NS(=O)(=O)c4ccc(N[C@H](CCN5CCOCC5)CSc5ccccc5)c(S(=O)(=O)C(F)(F)F)c4)cc3)CC2)C1 [Navitoclax] (partner 0.5 µM)
Procedure, shortened: as §1

Cell Line	relative viability (Metformin + Foretinib; first compound 10 µM)	relative viability (Metformin + Foretinib; first compound 31.62 µM)	relative viability (Metformin + Foretinib; first compound 100 µM)	relative viability (Metformin + Foretinib; first compound 316.23 µM)	relative viability (Metformin + Foretinib; first compound 1000 µM)	relative viability (Metformin + Vorinostat; first compound 10 µM)	relative viability (Metformin + Vorinostat; first compound 31.62 µM)	relative viability (Metformin + Vorinostat; first compound 100 µM)	relative viability (Metformin + Vorinostat; first compound 316.23 µM)	relative viability (Metformin + Vorinostat; first compound 1000 µM)	relative viability (Apatinib + Trametinib; first compound 0.08 µM)	relative viability (Apatinib + Trametinib; first compound 0.253 µM)	relative viability (Apatinib + Trametinib; first compound 0.8 µM)	relative viability (Apatinib + Trametinib; first compound 2.53 µM)	relative viability (Apatinib + Trametinib; first compound 8 µM)	relative viability (Apatinib + Navitoclax; first compound 0.08 µM)	relative viability (Apatinib + Navitoclax; first compound 0.253 µM)	relative viability (Apatinib + Navitoclax; first compound 0.8 µM)	relative viability (Apatinib + Navitoclax; first compound 2.53 µM)	relative viability (Apatinib + Navitoclax; first compound 8 µM)
NCI-H1650	1.41	1.34	1.42	1.3	1.18	0.492	0.675	0.799	0.529	0.52	0.607	0.659	0.395	0.515	0.482	1.39	1.41	1.18	1.1	1.06
SK-MES-1	0.915	0.888	0.874	0.912	1.18	0.839	1.03	1.11	0.919	0.99	0.585	0.642	0.567	0.64	0.514	1.25	1.17	1.24	1.14	0.965
NCI-H2085	0.854	0.892	0.865	1.04	1.19	0.733	0.747	0.775	0.788	0.812	0.608	0.53	0.39	0.576	0.426	1.18	1.23	1.18	1.05	0.949
NCI-H441		0.879	0.799	0.788	0.77		0.513	0.69	0.51	0.866	0.52	0.46	0.434	0.442	0.503	1.07	0.5	0.728	0.519	0.31
PC-3 [JPC-3]	0.808	0.945	0.996	0.93	0.946	0.737	0.664		0.85	0.554		0.786	0.553	0.646	0.654	0.785	0.764	0.746	0.816	0.737
NCI-H1944	0.881	0.995	1.03	0.924	0.996	0.465	0.651	0.571	0.59	0.631	0.395	0.429	0.318	0.403	0.29	1.04	1.06	0.976	0.974	0.965
CAL-12T	1.25	1.32	1.04	1.04	0.76	0.729	0.742	0.585	0.691	0.743	0.385	0.337	0.289	0.313	0.249	1.26	1.23	1.1	1.17	1.03
